{"source": "patent US10941379B2", "about": "“Microbial system for biosynthesis of natural and engineered products coupled to in situ extraction in supercritical CO2” (Massachusetts Institute of Technology, priority 2016, dated 2021)", "tested_on": "B. megaterium SR7", "experiment": "M9 supplemented growth under 1 atm CO2 (OD600)", "assay_type": "cell-based, Bacillus megaterium", "details": "amendment to M9 base medium, 1 atm CO2, scored by OD600", "source_text": "Development of a minimal medium enables individual chemical components to be tuned in order to establish optimized growth from a sole carbon source under 1 atm CO2. Initial attempts to generate B. megaterium SR7 growth in triplicate cultures tested various amendments to M9 base medium (thelabrat.com; Table 1), including 0.4% glucose or 0.4% xylose amendments as sole carbon sources, with or without trace metals solution (Boone et al., 1989). The 1× concentration trace metals solution consisted of (in g/l): 0.005 Na2(EDTA), 0.0002 NiSO4.6H2O, 0.0005 CoCl2.6H2O, 0.0001H2FeO3, 0.001 FeSO4.7H2O, 0.0001H3BO3, 0.001 ZnCl2, 0.0001 NaMoO4.2H2O, 0.0004 AlCl3.6H2O, 0.001 MnCl2.4H2O, 0.0003 Na2NO4.2H2O, 0.0002 CaCl2. To further boost growth, triplicate cultures of M9+0.4% glucose were amended with dilute LB (0.001-0.01×) or yeast extract (YE; 0.001-0.01×) as de facto vitamin and co-factor solutions, and/or NaNO3 (5 mM) as an alternative electron acceptor. All M9 incubations were scored for growth by OD600 and designated as robust above OD600>0.600, low level between 0.2-0.6, and no growth below 0.2. Passaged vegetative cultures were also assayed in duplicate for growth (by OD600) amended with a range (0.1×, 0.25×, 1×) of trace metals solutions in M9+0.4% glucose+0.01×YE media, including in the presence and absence of 5 mM NaNO3."}
{"smiles": "O=C[C@H](O)[C@@H](O)[C@H](O)CO", "note": "[0.4% Xylose, Xylose]", "values": [{"measurement": "Growth", "value": "− (no growth below 0.2)"}]}
